Measurements reported in ChEMBL document CHEMBL1287643, “3D-QSAR pharmacophore modeling and in silico screening of new Bcl-xl inhibitors” (Eur J Med Chem, 2010).

These compounds were tested against Bcl-2-like protein 1 (Homo sapiens, UniProt Q07817) (assay: Inhibition of Bcl-XL).
Chain of Bcl-2-like protein 1 (Q07817 whole entry): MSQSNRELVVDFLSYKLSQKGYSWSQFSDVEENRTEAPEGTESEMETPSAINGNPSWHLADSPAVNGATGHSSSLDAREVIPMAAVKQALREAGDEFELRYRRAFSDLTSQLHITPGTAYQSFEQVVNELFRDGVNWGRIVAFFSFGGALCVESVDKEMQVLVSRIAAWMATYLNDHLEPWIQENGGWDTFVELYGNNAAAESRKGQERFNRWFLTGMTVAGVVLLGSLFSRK

Row | Compound | EC50
1 | CN(C)CCC(CSc1ccccc1)Nc1ccc(S(=O)(=O)NC(=O)c2ccc(N3CCC(=Cc4ccc(C(F)(F)F)cc4)CC3)cc2)cc1[N+](=O)[O-] (stereo unspecified) | 2.6 µM
2 | COc1cccc(-c2ccccc2CN2CCN(c3ccc(C(=O)NS(=O)(=O)c4ccc(NC(CCN(C)C)CSc5ccccc5)c([N+](=O)[O-])c4)cc3)CC2)c1 (stereo unspecified) | 0.38 µM
3 | COC1(Cc2ccccc2Cl)CCN(c2ccc(C(=O)NS(=O)(=O)c3ccc(NC(CCN(C)C)CSc4ccccc4)c([N+](=O)[O-])c3)cc2)CC1 (stereo unspecified) | 0.23 µM
4 | CN(C)CCC(CSc1ccccc1)Nc1ccc(S(=O)(=O)NC(=O)c2ccc(N3CCN(Cc4ccccc4)CC3)cc2)cc1[N+](=O)[O-] (stereo unspecified) | 1.1 µM
5 | COC1(CC(C)(C)C)CCN(c2ccc(C(=O)NS(=O)(=O)c3ccc(NC(CCN(C)C)CSc4ccccc4)c([N+](=O)[O-])c3)cc2)CC1 (stereo unspecified) | 0.75 µM
6 | COC1(CC2CCCCC2)CCN(c2ccc(C(=O)NS(=O)(=O)c3ccc(NC(CCN(C)C)CSc4ccccc4)c([N+](=O)[O-])c3)cc2)CC1 (stereo unspecified) | 0.32 µM
7 | COC1(Cc2ccccc2-c2ccccc2)CCN(c2ccc(C(=O)NS(=O)(=O)c3ccc(NC(CCN(C)C)CSc4ccccc4)c([N+](=O)[O-])c3)cc2)CC1 (stereo unspecified) | 0.035 µM
8 | CN(C)CCC(CSc1ccccc1)Nc1ccc(S(=O)(=O)NC(=O)c2ccc(N3CCC(=Cc4ccccn4)CC3)cc2)cc1[N+](=O)[O-] (stereo unspecified) | 0.55 µM
9 | COc1ccc(-c2ccccc2CN2CCN(c3ccc(C(=O)NS(=O)(=O)c4ccc(NC(CCN(C)C)CSc5ccccc5)c([N+](=O)[O-])c4)cc3)CC2)cc1 (stereo unspecified) | 0.03 µM
10 | CN(C)CCC(CSc1ccccc1)Nc1ccc(S(=O)(=O)NC(=O)c2ccc(N3CCC(=Cc4cccnc4)CC3)cc2)cc1[N+](=O)[O-] (stereo unspecified) | 1.9 µM
11 | CN(C)CCC(CSc1ccccc1)Nc1ccc(S(=O)(=O)NC(=O)c2ccc(N3CCN(Cc4ccccc4-c4ccccc4Cl)CC3)cc2)cc1[N+](=O)[O-] (stereo unspecified) | 0.056 µM
12 | COC1(Cc2ccc(Cl)cc2)CCN(c2ccc(C(=O)NS(=O)(=O)c3ccc(NC(CCN(C)C)CSc4ccccc4)c([N+](=O)[O-])c3)cc2)CC1 (stereo unspecified) | 0.4 µM
13 | CN(C)CCC(CSc1ccccc1)Nc1ccc(S(=O)(=O)NC(=O)c2ccc(N3CCN(Cc4ccccc4-c4ccc(-c5ccccc5)cc4)CC3)cc2)cc1[N+](=O)[O-] (stereo unspecified) | 0.022 µM
14 | COC1(Cc2cccc(Cl)c2)CCN(c2ccc(C(=O)NS(=O)(=O)c3ccc(NC(CCN(C)C)CSc4ccccc4)c([N+](=O)[O-])c3)cc2)CC1 (stereo unspecified) | 0.25 µM
15 | CN(C)CCC(CSc1ccccc1)Nc1ccc(S(=O)(=O)NC(=O)c2ccc(N3CCN(Cc4ccccc4S(C)(=O)=O)CC3)cc2)cc1[N+](=O)[O-] (stereo unspecified) | 5.5 µM
16 | COc1ccccc1CC1(OC)CCN(c2ccc(C(=O)NS(=O)(=O)c3ccc(NC(CCN(C)C)CSc4ccccc4)c([N+](=O)[O-])c3)cc2)CC1 (stereo unspecified) | 0.15 µM
17 | CN(C)CCC(CSc1ccccc1)Nc1ccc(S(=O)(=O)NC(=O)c2ccc(N3CCC(=Cc4ccccc4-c4ccccc4)CC3)cc2)cc1[N+](=O)[O-] (stereo unspecified) | 0.16 µM
18 | CN(C)CCC(CSc1ccccc1)Nc1ccc(S(=O)(=O)NC(=O)c2ccc(N3CCN(Cc4ccccc4-c4ccc(F)cc4)CC3)cc2)cc1[N+](=O)[O-] (stereo unspecified) | 0.13 µM
19 | CN(C)CCC(CSc1ccccc1)Nc1ccc(S(=O)(=O)NC(=O)c2ccc(N3CCC(=Cc4ccccc4C(F)(F)F)CC3)cc2)cc1[N+](=O)[O-] (stereo unspecified) | 0.15 µM
20 | CN(C)CCC(CSc1ccccc1)Nc1ccc(S(=O)(=O)NC(=O)c2ccc(N3CCC(=Cc4ccc(F)cc4)CC3)cc2)cc1[N+](=O)[O-] (stereo unspecified) | 0.38 µM
21 | CSc1ccccc1CN1CCN(c2ccc(C(=O)NS(=O)(=O)c3ccc(NC(CCN(C)C)CSc4ccccc4)c([N+](=O)[O-])c3)cc2)CC1 (stereo unspecified) | 0.0951 µM

Row | Compound | EC50
22 | Cc1ccccc1CN1CCN(c2ccc(C(=O)NS(=O)(=O)c3ccc(NC(CCN(C)C)CSc4ccccc4)c([N+](=O)[O-])c3)cc2)CC1 (stereo unspecified) | 0.41 µM
23 | CN(C)CCC(CSc1ccccc1)Nc1ccc(S(=O)(=O)NC(=O)c2ccc(N3CCC(=Cc4ccccc4F)CC3)cc2)cc1[N+](=O)[O-] (stereo unspecified) | 0.25 µM
24 | COC1(Cc2ccccc2Br)CCN(c2ccc(C(=O)NS(=O)(=O)c3ccc(NC(CCN(C)C)CSc4ccccc4)c([N+](=O)[O-])c3)cc2)CC1 (stereo unspecified) | 0.1 µM
25 | COC1(Cc2ccccc2)CCN(c2ccc(C(=O)NS(=O)(=O)c3ccc(NC(CCN(C)C)CSc4ccccc4)c([N+](=O)[O-])c3)cc2)CC1 (stereo unspecified) | 0.681 µM
26 | CN(C)CCC(CSc1ccccc1)Nc1ccc(S(=O)(=O)NC(=O)c2ccc(N3CCN(Cc4ccccc4-c4ccc(S(C)(=O)=O)cc4)CC3)cc2)cc1[N+](=O)[O-] (stereo unspecified) | 0.46 µM
27 | COC1(Cc2ccc(-c3ccccc3)cc2)CCN(c2ccc(C(=O)NS(=O)(=O)c3ccc(NC(CCN(C)C)CSc4ccccc4)c([N+](=O)[O-])c3)cc2)CC1 (stereo unspecified) | 0.6 µM
28 | CN(C)CCC(CSc1ccccc1)Nc1ccc(S(=O)(=O)NC(=O)c2ccc(N3CCN(Cc4ccccc4C(F)(F)F)CC3)cc2)cc1[N+](=O)[O-] (stereo unspecified) | 0.39 µM
29 | CN(C)CCC(CSc1ccccc1)Nc1ccc(S(=O)(=O)NC(=O)c2ccc(N3CCN(Cc4ccccc4-c4ccccc4)CC3)cc2)cc1[N+](=O)[O-] (stereo unspecified) | 0.018 µM
30 | COC1(Cc2ccccc2F)CCN(c2ccc(C(=O)NS(=O)(=O)c3ccc(NC(CCN(C)C)CSc4ccccc4)c([N+](=O)[O-])c3)cc2)CC1 (stereo unspecified) | 0.18 µM
31 | CN(C)CCC(CSc1ccccc1)Nc1ccc(S(=O)(=O)NC(=O)c2ccc(N3CCN(Cc4ccccc4C4CCCCC4)CC3)cc2)cc1[N+](=O)[O-] (stereo unspecified) | 0.34 µM
32 | CN(C)CCC(CSc1ccccc1)Nc1ccc(S(=O)(=O)NC(=O)c2ccc(N3CCC(=Cc4ccc(Cl)cc4)CC3)cc2)cc1[N+](=O)[O-] (stereo unspecified) | 0.619 µM
33 | CN(C)CCC(CSc1ccccc1)Nc1ccc(S(=O)(=O)NC(=O)c2ccc(N3CCN(Cc4ccccc4-c4cccc(Cl)c4)CC3)cc2)cc1[N+](=O)[O-] (stereo unspecified) | 0.18 µM
34 | CN(C)CCC(CSc1ccccc1)Nc1ccc(S(=O)(=O)NC(=O)c2ccc(N3CCN(Cc4ccccc4NC4CCCCC4)CC3)cc2)cc1[N+](=O)[O-] (stereo unspecified) | 0.661 µM
35 | CN(C)CCC(CSc1ccccc1)Nc1ccc(S(=O)(=O)NC(=O)c2ccc(N3CCN(Cc4ccccc4-c4cccnc4)CC3)cc2)cc1[N+](=O)[O-] (stereo unspecified) | 0.8 µM
36 | COc1ccccc1CN1CCN(c2ccc(C(=O)NS(=O)(=O)c3ccc(NC(CCN(C)C)CSc4ccccc4)c([N+](=O)[O-])c3)cc2)CC1 (stereo unspecified) | 0.39 µM
37 | CN(C)CCC(CSc1ccccc1)Nc1ccc(S(=O)(=O)NC(=O)c2ccc(N3CCN(Cc4ccccc4-c4ccc(C(F)(F)F)cc4)CC3)cc2)cc1[N+](=O)[O-] (stereo unspecified) | 0.04 µM
38 | COc1ccccc1C=C1CCN(c2ccc(C(=O)NS(=O)(=O)c3ccc(NC(CCN(C)C)CSc4ccccc4)c([N+](=O)[O-])c3)cc2)CC1 (stereo unspecified) | 0.3 µM
39 | COC1(Cc2ccccc2C)CCN(c2ccc(C(=O)NS(=O)(=O)c3ccc(NC(CCN(C)C)CSc4ccccc4)c([N+](=O)[O-])c3)cc2)CC1 (stereo unspecified) | 0.15 µM
40 | CN(C)CCC(CSc1ccccc1)Nc1ccc(S(=O)(=O)NC(=O)c2ccc(N3CCC(=Cc4ccccc4C#N)CC3)cc2)cc1[N+](=O)[O-] (stereo unspecified) | 1.1 µM
41 | COC1(CC(C)C)CCN(c2ccc(C(=O)NS(=O)(=O)c3ccc(NC(CCN(C)C)CSc4ccccc4)c([N+](=O)[O-])c3)cc2)CC1 (stereo unspecified) | 0.579 µM
